Measurements from ChEMBL document CHEMBL1140941 (J Med Chem, 2009).
The source made the active and inactive calls. The rule behind the calls is not given here.

Assays:
[1] = molecular target: Oxysterols receptor LXR-alpha (Homo sapiens) (UniProt Q13133); experiment: Agonist activity at LXRalpha expressed in african green monkey CV1 cells co-expressing LXRE by luciferase reporter gene assay; format: functional, cell-based; conditions: CV-1
[2] = molecular target: T1, Bile acid receptor (Homo sapiens) (UniProt Q96RI1); experiment: Antagonist activity at human FXR expressed in african green monkey CV1 cells co-expressing RXRE with RXR co-factor by luciferase reporter gene assay; format: functional, cell-based; conditions: CV-1
T1 sequence (whole entry): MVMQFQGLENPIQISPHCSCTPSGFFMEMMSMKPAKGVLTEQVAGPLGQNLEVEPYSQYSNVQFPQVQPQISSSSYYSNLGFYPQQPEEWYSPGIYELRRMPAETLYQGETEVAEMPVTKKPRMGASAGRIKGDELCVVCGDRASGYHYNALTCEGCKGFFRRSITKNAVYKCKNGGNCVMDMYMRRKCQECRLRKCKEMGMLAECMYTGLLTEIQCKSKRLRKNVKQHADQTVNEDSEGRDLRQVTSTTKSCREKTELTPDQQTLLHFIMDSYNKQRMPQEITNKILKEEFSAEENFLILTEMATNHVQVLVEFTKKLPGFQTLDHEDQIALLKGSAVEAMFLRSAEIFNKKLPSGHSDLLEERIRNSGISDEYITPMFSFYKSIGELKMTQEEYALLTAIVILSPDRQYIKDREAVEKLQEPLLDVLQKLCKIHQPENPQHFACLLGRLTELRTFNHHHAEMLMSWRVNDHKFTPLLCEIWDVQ

[3] = molecular target: Steroid hormone receptor ERR1 (Homo sapiens) (UniProt P11474); experiment: Antagonist activity at ERRalpha expressed in african green monkey CV1 cells by luciferase reporter gene assay; format: functional, cell-based; conditions: CV-1
[4] = molecular target: T2, Glucocorticoid receptor (Homo sapiens) (UniProt P04150); experiment: Antagonist activity at gal-GR expressed in african green monkey CV1 cells co-expressing MH100 at 10 uM by luciferase reporter gene assay; format: functional, cell-based; conditions: CV-1
T2 sequence (whole entry): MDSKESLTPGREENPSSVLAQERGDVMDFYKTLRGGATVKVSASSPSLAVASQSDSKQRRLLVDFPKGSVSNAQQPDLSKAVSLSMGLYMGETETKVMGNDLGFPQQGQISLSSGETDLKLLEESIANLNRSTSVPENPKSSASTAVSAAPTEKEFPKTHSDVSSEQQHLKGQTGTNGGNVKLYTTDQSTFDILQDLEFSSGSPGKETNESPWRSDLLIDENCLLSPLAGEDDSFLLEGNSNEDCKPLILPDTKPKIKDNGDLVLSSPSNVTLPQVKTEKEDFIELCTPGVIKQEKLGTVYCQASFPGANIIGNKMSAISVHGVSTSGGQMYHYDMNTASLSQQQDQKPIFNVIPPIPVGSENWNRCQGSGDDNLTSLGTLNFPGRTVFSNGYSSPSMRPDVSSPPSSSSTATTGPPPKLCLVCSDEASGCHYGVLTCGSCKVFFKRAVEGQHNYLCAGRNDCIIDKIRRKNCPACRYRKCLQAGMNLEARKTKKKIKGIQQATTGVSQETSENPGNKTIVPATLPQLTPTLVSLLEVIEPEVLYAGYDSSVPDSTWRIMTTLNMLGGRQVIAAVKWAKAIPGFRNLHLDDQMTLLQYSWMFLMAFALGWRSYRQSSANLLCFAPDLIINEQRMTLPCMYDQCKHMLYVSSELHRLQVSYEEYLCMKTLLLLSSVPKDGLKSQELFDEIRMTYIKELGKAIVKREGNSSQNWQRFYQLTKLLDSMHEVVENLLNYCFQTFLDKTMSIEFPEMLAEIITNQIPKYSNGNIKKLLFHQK

[5] = molecular target: T3, Progesterone receptor (Homo sapiens) (UniProt P06401); experiment: Antagonist activity at gal-PR expressed in african green monkey CV1 cells co-expressing MH100 at 10 uM by luciferase reporter gene assay; format: functional, cell-based; conditions: CV-1
T3 sequence (whole entry): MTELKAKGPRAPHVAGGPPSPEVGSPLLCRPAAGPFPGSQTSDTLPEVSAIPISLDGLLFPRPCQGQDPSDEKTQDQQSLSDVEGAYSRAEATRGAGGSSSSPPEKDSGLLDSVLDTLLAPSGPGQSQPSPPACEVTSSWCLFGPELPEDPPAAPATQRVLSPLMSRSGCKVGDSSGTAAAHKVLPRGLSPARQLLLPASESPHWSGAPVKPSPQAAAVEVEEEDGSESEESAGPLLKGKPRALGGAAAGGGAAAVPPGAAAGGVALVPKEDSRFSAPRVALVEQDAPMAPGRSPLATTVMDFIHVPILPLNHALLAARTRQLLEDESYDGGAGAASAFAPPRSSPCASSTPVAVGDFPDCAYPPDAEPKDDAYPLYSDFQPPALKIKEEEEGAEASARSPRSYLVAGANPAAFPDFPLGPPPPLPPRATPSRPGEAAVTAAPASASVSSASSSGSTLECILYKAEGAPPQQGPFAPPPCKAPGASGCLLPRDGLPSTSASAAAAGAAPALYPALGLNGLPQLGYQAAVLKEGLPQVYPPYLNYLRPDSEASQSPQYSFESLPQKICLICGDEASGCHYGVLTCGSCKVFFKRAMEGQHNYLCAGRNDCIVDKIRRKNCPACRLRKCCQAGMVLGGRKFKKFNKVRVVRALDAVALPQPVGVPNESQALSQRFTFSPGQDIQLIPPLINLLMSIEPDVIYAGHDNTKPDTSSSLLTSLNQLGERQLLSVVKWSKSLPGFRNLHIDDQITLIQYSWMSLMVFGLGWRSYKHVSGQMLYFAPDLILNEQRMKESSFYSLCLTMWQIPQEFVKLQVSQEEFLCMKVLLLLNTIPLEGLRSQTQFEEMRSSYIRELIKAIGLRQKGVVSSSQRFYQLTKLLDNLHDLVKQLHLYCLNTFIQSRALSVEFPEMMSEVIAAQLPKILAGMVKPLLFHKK

[6] = Cmax in CD rat at 3 mg/kg, po; format: ADME, organism-based; parameters: dose 3 mg/kg, route oral; conditions: in vivo
Rattus norvegicus = experiment: Clearance in CD rat assessed as liver blood flow at 3 mg/kg; format: ADME, organism-based; parameters: dose 3 mg/kg; conditions: in vivo

Sequence of Steroid hormone receptor ERR1 (Homo sapiens) (P11474 whole entry): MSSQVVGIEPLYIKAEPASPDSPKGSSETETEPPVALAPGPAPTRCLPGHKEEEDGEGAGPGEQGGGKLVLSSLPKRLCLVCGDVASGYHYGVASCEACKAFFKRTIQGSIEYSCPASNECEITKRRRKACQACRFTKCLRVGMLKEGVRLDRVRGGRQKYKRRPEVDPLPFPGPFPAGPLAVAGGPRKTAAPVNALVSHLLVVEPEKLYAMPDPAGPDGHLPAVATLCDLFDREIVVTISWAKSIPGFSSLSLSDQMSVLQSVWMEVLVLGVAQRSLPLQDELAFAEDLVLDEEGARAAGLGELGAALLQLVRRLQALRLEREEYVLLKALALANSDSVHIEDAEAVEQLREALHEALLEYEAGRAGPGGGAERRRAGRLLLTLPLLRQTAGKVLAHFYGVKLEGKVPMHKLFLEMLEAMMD
Sequence of Oxysterols receptor LXR-alpha (Homo sapiens) (Q13133 whole entry): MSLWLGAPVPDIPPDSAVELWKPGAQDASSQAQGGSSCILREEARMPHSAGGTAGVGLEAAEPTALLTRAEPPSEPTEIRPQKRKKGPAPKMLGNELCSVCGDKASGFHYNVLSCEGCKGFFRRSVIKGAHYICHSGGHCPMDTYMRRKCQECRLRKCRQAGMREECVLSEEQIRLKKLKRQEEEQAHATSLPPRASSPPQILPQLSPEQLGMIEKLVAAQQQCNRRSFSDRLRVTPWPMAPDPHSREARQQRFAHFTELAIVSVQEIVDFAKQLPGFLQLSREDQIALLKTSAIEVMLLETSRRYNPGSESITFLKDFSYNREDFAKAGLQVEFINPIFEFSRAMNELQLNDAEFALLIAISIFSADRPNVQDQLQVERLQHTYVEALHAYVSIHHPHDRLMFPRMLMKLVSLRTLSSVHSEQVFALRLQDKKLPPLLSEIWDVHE

Activity [1]: inactive
Activity [2]: inactive
Activity [3]: inactive
inhibition [4]: 35%
inhibition [5]: 14%
Cmax [6]: 500 nM
LBF (Rattus norvegicus): 10%
SMILES: CC(C)OC(=O)C1=CN(C(=O)c2ccc(F)c(F)c2)CC(C)(C)c2c1[nH]c1ccccc21 [TUROFEXORATE ISOPROPYL]
